These results are taken from publication PMC6724193 (ACS infectious diseases, 2019).

One assay relates to M. tuberculosis H37Rv. In kind it is cell-based.
For assay [1], the system named is drug susceptible and drug-resistant M. tuberculosis strains. In kind it is cell-based.

For `O=C(O)CCCCCC1NC(=O)CS1` (racemic) [(±)-acidomycin, 6-(4-Oxothiazolidin-2-yl)hexanoic acid], in the assay with M. tuberculosis H37Rv, the “agar MIC” value was 12 µM, the “fold increase of MIC of resistant mutant over WT H37Rv” value is listed as “approximately 16 fold” and the “frequency of resistance (FOR)” value was “less than or equal to 1 × 10^−8”.
In the case of `O=C(O)CCCCCC1NC(=O)CS1` (stereo not drawn) [acidomycin], in the assay on M. tuberculosis H37Rv, the “fold increase in MIC” value is given as “two- to three-fold” and the “fold increase of MIC of resistant mutant over WT H37Rv” value was found to be 16 fold. In assay [1], the “MICs (range over strains)” value was 0.096 to 6.2 µM.
